The values that follow come from patent publication EP0791004B1, “ACYLATED BENZYLGLYCOSIDES AS INHIBITORS OF SMOOTH MUSCLE CELL PROLIFERATION” (AMERICAN HOME PRODUCTS CORPORATION, priority 1994, dated 1996).

The test system of series [1] is Porcine Smooth Muscle Cell. Nature of the series: Cytotoxicity, MTT assay. Conditions: up to 100 µg/mL; 24 h, medium without serum. It counts as cell-based. The protocol:
Briefly, cells were again grown in 24 well plates to 70 - 80 % confluency and, as before, serum deprived for 24 - 48 h prior to initiation of the experimental protocol. To insure that the MTT assay monitored toxicity rather than proliferation, cells were incubated with 100 µg/mL of drug in fresh medium without serum for 24 h at 37 °C in a humidified CO2 incubator. Upon completion of the compound treatment, MTT (3-[4,5-dimethylthiazol-2-yl]-2,5-diphenyltetrazolium bromide) indicator dye was added for 4 h at 37 °C. Cells were then lysed and aliquots from each well were transferred to a 96 well plate for analysis. Absorbance at 570 nm wavelength with a reference wavelength of 630 nm was recorded using an ELISA plate reader. Results were determined as percent viable using no drug (100% viable) and pre-solubilization (0% viable) standards.
A general note: Formazan colour is commonly taken as a measure of viable cells.

The test system of series [2] is normal human plasma. The series can be described thus: Anticoagulant activity, partial thromboplastin time (APTT) assay. It counts as biochemical. The conditions noted are these: human citrated plasma. The protocol: The anticlotting activity of the compounds of this invention was evaluated in a partial thromboplastin time (APTT) assay using normal human plasma collected from 5 donors according to the procedure of Fenichel et. al. (Clin. Chem. 1964, 10, 69). A BBL Fibrometer automatic precision coagulation timer utilizing a 0.3 mL probe was employed. An Ellagic acid activated partial thromboplastin was used for these experiments. This reagent was added to human citrated plasma equilibrated at 37 °C in a plastic well in the clot timer. Calcium at 37 °C was added, the clot timer was started and the time for fibrin clot formation (in seconds) was recorded. The effect of the compounds, added to plasma, over a concentration of 12.5 - 200 µg/mL was determined. […] An unfractionated heparin comparator was used over the concentration range of 1.25 - 10 µg/mL. Clotting tests at all concentrations were run in triplicate. Analysis of variance for a randomized block design was used to determine the significance of differences observed in the clotting times. […]

For `CCCCC(=O)Nc1cc(CO[C@@H]2O[C@H](COC(C)=O)[C@@H](O[C@H]3O[C@H](COC(C)=O)[C@@H](OC(C)=O)[C@H](OC(C)=O)[C@H]3OC(C)=O)[C@H](OC(C)=O)[C@H]2OC(C)=O)ccc1C` [Example 12, Pentanoic Acid N-[5-(Hepta-O-acetyl-β-D-maltosyloxymethyl)-2-methylphenyl]amide], the “toxicity (MTT, percent viable)” value in series [1] is “no toxicity”. In addition, in series [2], the “anticoagulant activity (APTT assay)” value is reported as “no anticoagulant activity”.

Regarding `CC(=O)OC[C@H]1O[C@H](O[C@H]2[C@H](OC(C)=O)[C@@H](OC(C)=O)[C@H](OCc3ccc(C)c(NS(=O)(=O)c4ccc(NS(C)(=O)=O)cc4)c3)O[C@@H]2COC(C)=O)[C@H](OC(C)=O)[C@@H](OC(C)=O)[C@@H]1OC(C)=O` [Example 17, N-[5-(Hepta-O-acetyl-β-D-maltosyloxymethyl)-2-methylphenyl]-4-(methanesulfonylamino)benzenesulfonamide], in series [1], the “toxicity (MTT, percent viable)” value is reported as “no toxicity”. The “anticoagulant activity (APTT assay)” value in series [2] was “no anticoagulant activity”.
